# Test results taken from patent US20060029674A1, “Stable amorphous Cefdinir” (priority 2004, published 2006).
# Key:
# [1] = Glass transition temperature (Tg) by thermally stimulated current spectroscopy; assay type: physicochemical
# Experimental: The glass transition temperature (Tg) determined by thermally stimulated current spectroscopy was 67° C. This value of 67° C. is considerably higher than ambient temperature, and as a rule of thumb high Tg values are desirable for room temperature stability.
# The glass transition temperature (Tg) determined by thermally stimulated current spectroscopy was 102° C. […] The higher Tg observed for the cefdinir-EPO sample relative to the individual components further confirms specific interaction.
# The glass transition temperature (Tg) determined by thermally stimulated current spectroscopy was 95° C.
# [2] = Physical stability of the isolated amorphous material; assay type: physicochemical; details: isolated by evaporating a methanolic solution
# Excerpt: Amorphous Cefdinir was isolated by evaporating a methanolic solution of cefdinir hydrate. […] Stable amorphous Cefdinir with Eudragit EPO was made and isolated by evaporating a methanolic solution. […] Amorphous cefdinir with PVP was made and isolated by evaporating a methanolic solution.
# [3] = material taught in U.S. Pat. No. 4,559,334; cited from earlier work
Structure (SMILES),glass transition temperature (Tg) [1] [°C],physical stability of the amorphous material [2],stability of prior-art amorphous material [3]
"C=CC1=C(C(=O)O)N2C(=O)C(NC(=O)C(=NO)c3csc(N)n3)[C@H]2SC1 (single isomer, unassigned) [Amorphous Cefdinir, 7-[2-(2-aminothiazol-4-yl)-2-hydroxyiminoacetamido]-3-vinyl-3-cephem-4-carboxylic acid (syn isomer)]",67,physically stable,
C=CC1=C(C(=O)O)N2C(=O)[C@@H](NC(=O)/C(=N\O)c3csc(N)n3)[C@H]2SC1 [crystalline-like amorphous material],,,unstable
